In article PMC11249953, “c-KIT inhibitors reduce pathology and improve behavior in the Tg(SwDI) model of Alzheimer’s disease” (Life Science Alliance, 2024):
“And” between values parts separate entries of the source, which are not always exact repeats. Equal entries are not always repeated.

How the values were obtained:
ABL1 = target: T1, ABL1 (Homo sapiens, UniProt P00519); assay: KINOMEscan competition binding, ABL1; settings: 10 µM compound
T1 construct: DNA label for qPCR read-out (T7 phage fusion or DNA tag); purchased Eurofins DiscoverX Corporation; host or cells: T7 phage in E. coli (BL21-derived) or HEK-293
Description: (§1) The KINOMEscan screening platform (Eurofins DiscoverX Corporation) was performed using active site-directed competition binding assay to quantitatively measure interactions between BK40143 and BK40197 and more than 450 human kinases and disease relevant mutant variants. […] Screening “hits” are identified by measuring the amount of kinase captured in test (BK40143 and BK40197) versus control samples by using a quantitative and ultra-sensitive qRT-PCR method that detects the associated DNA label. BK40143 and BK40197 were screened at 10 µM concentration, and results for primary screen binding interactions were reported as “% Ctrl” (POC), where lower numbers indicate stronger hits and calculated as follows: [test compound signal−positive control signal/negative control signal−positive control signal]×100
(§2) negative control = DMSO (100% Ctrl)
(§3) positive control = control compound (0% Ctrl)
(§4) Based on screening data from of profiled compounds, a proportional relationship between primary screening results and corresponding compound/target affinities can be described as binding constants (Kd values) for the indicated ranges of POC values with tighter binding (higher affinity) interactions associated with lower POC values and weaker binding (lower affinity) associated with higher POC values. Briefly, kinase-tagged T7 phage strains were grown in parallel in 24-well blocks in an E. coli host derived from the BL21 strain. E. coli were grown to log-phase and infected with T7 phage from a frozen stock (multiplicity of infection = 0.4) and incubated with shaking at 32°C until lysis (90–150 min). The lysates were centrifuged (6,000g) and filtered (0.2 μm) to remove cell debris. The remaining kinases were produced in HEK-293 cells and subsequently tagged with DNA for qRT-PCR detection. Streptavidin-coated magnetic beads were treated with biotinylated small molecule ligands for 30 min at RT to generate affinity resins for kinase assays. The liganded beads were blocked with excess biotin and washed with blocking buffer (1% BSA, 0.05% Tween 20, 1 mM DTT; SeaBlock [Pierce]) to remove unbound ligand and to reduce non-specific phage binding. Binding reactions were assembled by combining kinases, liganded affinity beads, and test compounds in 1x binding buffer (20% 0.17x PBS, 0.05% Tween 20, 6 mM DTT; SeaBlock). Test compounds were prepared as 100x stocks in 100% DMSO and directly diluted into the assay. All reactions were performed in polypropylene 384-well plates in a final volume of 0.02 ml. The assay plates were incubated at RT with shaking for 1 h and the affinity beads were washed with wash buffer (1x PBS, 0.05% Tween 20). […] The kinase concentration in the eluates was measured by qRT-PCR.

KIT (V559D) = target: T2, KIT (V559D) (Homo sapiens, UniProt P10721, V559D); assay: KINOMEscan competition binding, KIT (V559D); settings: 10 µM compound
T2 construct: DNA label for qPCR read-out (T7 phage fusion or DNA tag); purchased Eurofins DiscoverX Corporation; host or cells: T7 phage in E. coli (BL21-derived) or HEK-293
Description: as §1, §2, §3, §4

KIT = target: T3, KIT (Homo sapiens, UniProt P10721); assay: KINOMEscan competition binding, KIT; settings: 10 µM compound
T3 construct: DNA label for qPCR read-out (T7 phage fusion or DNA tag); purchased Eurofins DiscoverX Corporation; host or cells: T7 phage in E. coli (BL21-derived) or HEK-293
Description: as §1, §2, §3, §4

TgAPP mice = assay: Morris water maze, TgAPP mice; format: in vivo, mouse; parameters: Platform Distance: unit not given beside the values; Total Distance / Quad Time / Quad Distance / Trial 1 D4 / Trial 1 D4 AVG: unit not given here
Description: The Morris water maze was performed using a water bath 6 ft in diameter and filled with roughly 1 ft of water. The maze was divided into four quadrants, each with a visual stimulus positioned on the wall of the maze in the center of the quadrant arc. A clear platform was placed in one quadrant just beneath the surface of the water. Mice were then placed in a random non-platform quadrant and allowed to swim freely for 60 s (time was stopped and recorded if the mouse found the platform) before being placed on the platform for 15 s and returned to their cage. This was repeated for each of the three quadrants each day for 4 d. On the 5th d, the platform was removed and mice were placed in the quadrant opposite of where the platform had been and allowed to swim freely for 1 min before being returned to their cage. Time spent in the correct quadrant, latency to the platform, number of platform entries, and number of quadrant entries were recorded.

MTOR = target: T4, MTOR (Homo sapiens, UniProt P42345); assay: KINOMEscan competition binding, MTOR; settings: 10 µM compound
T4 construct: DNA label for qPCR read-out (T7 phage fusion or DNA tag); purchased Eurofins DiscoverX Corporation; host or cells: T7 phage in E. coli (BL21-derived) or HEK-293
Description: as §1, §2, §3, §4

PDGFRb = target: T5, PDGFRb (Homo sapiens, UniProt P09619); assay: KINOMEscan competition binding, PDGFRb; settings: 10 µM compound
T5 construct: DNA label for qPCR read-out (T7 phage fusion or DNA tag); purchased Eurofins DiscoverX Corporation; host or cells: T7 phage in E. coli (BL21-derived) or HEK-293
Description: as §1, §2, §3, §4

[1] = MWM Probe, single animal values, listed as 143
[2] = MWM Probe, single animal values, listed as 143, in s (unit assumed)
[3] = MWM training, Day 1, single animal values, listed as 143
[4] = MWM training, Day 2, single animal values, listed as 143
[5] = MWM training, Day 3, single animal values, listed as 143
[6] = MWM training, Day 4, single animal values, listed as 143

T3 sequence (P10721 26-976): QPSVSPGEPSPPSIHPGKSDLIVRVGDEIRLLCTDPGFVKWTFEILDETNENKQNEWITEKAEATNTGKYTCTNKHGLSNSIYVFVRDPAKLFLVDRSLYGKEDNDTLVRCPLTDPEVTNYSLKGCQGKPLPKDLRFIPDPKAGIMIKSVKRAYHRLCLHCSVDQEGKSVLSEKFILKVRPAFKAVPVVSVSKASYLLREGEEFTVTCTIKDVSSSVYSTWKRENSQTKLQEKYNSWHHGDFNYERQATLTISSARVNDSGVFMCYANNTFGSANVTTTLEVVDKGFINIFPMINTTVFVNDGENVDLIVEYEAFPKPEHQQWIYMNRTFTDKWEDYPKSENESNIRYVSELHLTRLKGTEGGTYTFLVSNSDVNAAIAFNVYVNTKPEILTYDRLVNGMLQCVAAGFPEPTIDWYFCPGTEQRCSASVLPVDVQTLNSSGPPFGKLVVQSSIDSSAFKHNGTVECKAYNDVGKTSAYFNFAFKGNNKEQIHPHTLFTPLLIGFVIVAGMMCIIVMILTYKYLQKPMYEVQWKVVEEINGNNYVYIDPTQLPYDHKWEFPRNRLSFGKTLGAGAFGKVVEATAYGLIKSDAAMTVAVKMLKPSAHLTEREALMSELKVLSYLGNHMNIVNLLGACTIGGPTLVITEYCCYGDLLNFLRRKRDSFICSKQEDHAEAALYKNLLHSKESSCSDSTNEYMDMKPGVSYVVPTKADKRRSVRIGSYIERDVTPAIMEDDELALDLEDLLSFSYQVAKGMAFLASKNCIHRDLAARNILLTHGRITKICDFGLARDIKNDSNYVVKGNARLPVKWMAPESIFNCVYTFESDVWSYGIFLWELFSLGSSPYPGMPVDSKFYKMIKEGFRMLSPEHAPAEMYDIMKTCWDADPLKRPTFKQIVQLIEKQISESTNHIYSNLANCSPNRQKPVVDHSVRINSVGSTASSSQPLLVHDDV
T1 sequence (P00519 whole entry, the tested form may be a part): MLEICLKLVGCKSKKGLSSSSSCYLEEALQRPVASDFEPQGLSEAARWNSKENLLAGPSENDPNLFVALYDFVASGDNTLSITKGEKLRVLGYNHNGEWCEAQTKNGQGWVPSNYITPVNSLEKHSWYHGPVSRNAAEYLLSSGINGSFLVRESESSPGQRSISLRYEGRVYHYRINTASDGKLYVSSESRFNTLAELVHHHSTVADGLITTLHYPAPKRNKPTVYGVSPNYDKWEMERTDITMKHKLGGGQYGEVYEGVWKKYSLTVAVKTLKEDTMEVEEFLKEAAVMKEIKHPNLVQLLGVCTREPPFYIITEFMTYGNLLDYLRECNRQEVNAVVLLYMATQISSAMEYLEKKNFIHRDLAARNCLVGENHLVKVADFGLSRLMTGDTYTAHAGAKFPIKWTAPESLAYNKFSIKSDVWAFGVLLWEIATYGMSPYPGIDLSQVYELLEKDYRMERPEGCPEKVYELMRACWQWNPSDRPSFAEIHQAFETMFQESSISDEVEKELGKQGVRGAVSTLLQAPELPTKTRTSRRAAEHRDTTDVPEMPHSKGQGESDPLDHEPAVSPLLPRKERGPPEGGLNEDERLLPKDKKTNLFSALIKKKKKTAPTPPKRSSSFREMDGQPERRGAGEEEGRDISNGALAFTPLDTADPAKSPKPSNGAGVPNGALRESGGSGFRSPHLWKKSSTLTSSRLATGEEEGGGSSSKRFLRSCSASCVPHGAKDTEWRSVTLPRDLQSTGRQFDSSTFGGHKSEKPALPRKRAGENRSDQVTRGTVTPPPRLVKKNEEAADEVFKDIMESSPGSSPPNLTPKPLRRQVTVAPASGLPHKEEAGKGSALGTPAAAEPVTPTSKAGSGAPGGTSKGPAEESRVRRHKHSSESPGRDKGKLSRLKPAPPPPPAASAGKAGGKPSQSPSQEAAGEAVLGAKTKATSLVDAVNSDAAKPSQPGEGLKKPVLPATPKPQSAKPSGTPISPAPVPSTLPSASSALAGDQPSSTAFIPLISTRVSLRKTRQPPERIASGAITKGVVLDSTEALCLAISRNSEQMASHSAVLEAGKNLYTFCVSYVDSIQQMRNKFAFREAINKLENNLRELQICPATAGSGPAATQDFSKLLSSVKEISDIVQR
T5 sequence (P09619 33-1106): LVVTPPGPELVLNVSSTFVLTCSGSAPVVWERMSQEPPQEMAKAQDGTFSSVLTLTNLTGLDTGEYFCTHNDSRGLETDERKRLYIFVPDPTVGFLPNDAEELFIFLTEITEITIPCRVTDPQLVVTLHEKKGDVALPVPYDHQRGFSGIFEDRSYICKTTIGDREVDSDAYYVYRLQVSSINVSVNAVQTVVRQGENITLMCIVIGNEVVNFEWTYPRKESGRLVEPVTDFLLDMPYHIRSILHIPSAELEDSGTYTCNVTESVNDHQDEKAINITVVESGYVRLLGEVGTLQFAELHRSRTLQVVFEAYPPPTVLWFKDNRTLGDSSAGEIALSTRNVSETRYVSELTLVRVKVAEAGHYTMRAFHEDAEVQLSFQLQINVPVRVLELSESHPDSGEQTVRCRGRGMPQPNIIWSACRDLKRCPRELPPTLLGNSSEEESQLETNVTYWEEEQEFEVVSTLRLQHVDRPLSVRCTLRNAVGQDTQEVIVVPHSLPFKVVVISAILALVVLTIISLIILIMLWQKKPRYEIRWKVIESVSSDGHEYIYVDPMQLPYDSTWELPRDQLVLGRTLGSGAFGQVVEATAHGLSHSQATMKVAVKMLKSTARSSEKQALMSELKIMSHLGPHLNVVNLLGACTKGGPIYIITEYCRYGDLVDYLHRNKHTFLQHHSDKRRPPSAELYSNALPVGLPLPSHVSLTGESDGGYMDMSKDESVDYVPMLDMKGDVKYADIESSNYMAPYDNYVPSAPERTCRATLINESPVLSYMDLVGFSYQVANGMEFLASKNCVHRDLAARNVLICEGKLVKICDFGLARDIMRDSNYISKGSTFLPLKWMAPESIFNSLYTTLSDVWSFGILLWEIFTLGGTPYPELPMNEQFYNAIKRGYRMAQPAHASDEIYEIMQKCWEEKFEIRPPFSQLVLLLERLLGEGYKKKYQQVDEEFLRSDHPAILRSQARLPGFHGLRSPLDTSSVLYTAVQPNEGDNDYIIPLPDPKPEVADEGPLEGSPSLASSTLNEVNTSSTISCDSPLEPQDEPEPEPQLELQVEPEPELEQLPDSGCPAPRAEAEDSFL
T2 sequence (P10721 26-976 V559D): as the sequence (P10721 26-976) above, with V534D counted along it

Compound: Cc1cccc(-c2cc3nccc(Nc4ccccc4)c3s2)c1 [BK40143]
- inhibition at 10 µM (ABL1): 90%
- remaining binding at 10 µM (ABL1; lower = stronger binding, read-out: ABL1 %Ctrl @ 10000nM): 10%
- inhibition at 10 µM (KIT (V559D)): 99.8%
- remaining binding at 10 µM (KIT (V559D); lower = stronger binding, read-out: KIT (V559D) %Ctrl @ 10000nM (POC)): 0.25%
- inhibition at 10 µM (KIT): 100%
- remaining binding at 10 µM (KIT; lower = stronger binding, read-out: KIT %Ctrl @ 10000nM (POC)): 0%
- Platform Distance (TgAPP mice; [1]): 0.467 and 0 and 0.449 and 0.195 and 0.184 and 0.331 and 0.254 and 0.89 and 0.328
- Platform Entries (TgAPP mice; [1]): 2 and 0 and 1 and 3
- Quad Distance (TgAPP mice; [1]): 5.043 and 5.446 and 3.201 and 3.934 and 3.492 and 4.145 and 2.65 and 6.181 and 3.964
- Quad Distance/Total (TgAPP mice; [1]): 0.3982 and 0.4027 and 0.1894 and 0.2536 and 0.5166 and 0.3292 and 0.1787 and 0.6061 and 0.2552
- Quad Entries (TgAPP mice; [1]): 10 and 8 and 9 and 3 and 6 and 13 and 7
- Quad Time (TgAPP mice; [1]): 22.9 and 26.8 and 10.6 and 13.3 and 30.6 and 20.6 and 8.1 and 36.5 and 15.3
- Total Distance (TgAPP mice; [1]): 12.663 and 13.525 and 16.899 and 15.514 and 6.759 and 12.592 and 14.83 and 10.786 and 10.198 and 15.531
- Platform Latency (TgAPP mice; MWM Probe, single animal values, listed as 143, in s): 7 and 60 and 18.8 and 32.8 and 39.9 and 29.7 and 3.9 and 19 and 17.1
- Platform Time (TgAPP mice; [2]): 1.2 and 0 and 1.4 and 0.6 and 0.8 and 5.3 and 1
- Quad Latency (TgAPP mice; [2]): 3 and 9.6 and 9.7 and 11.8 and 11.9 and 1 and 2.6 and 4.4 and 3.3
- Quad Time per Entry (TgAPP mice; [2]): 2.29 and 3.35 and 1.178 and 4.433 and 5.1 and 1.585 and 1.35 and 5.214 and 1.9125
- Training Day 1 AVG (TgAPP mice; MWM training, Day 1, group average): 51.6747
- Training Day 1, mean of the three trials per animal (TgAPP mice; MWM training, Day 1, per-animal mean, listed as 143): 53.4467 and 60 and 52.4667 and 29.4467 and 47.4833 and 58.2367 and 44.37 and 51.2967
- Training Day 1, trial 1 (TgAPP mice; [3]): 40.34 and 60 and 56.02
- Training Day 1, trial 2 (TgAPP mice; [3]): 60 and 37.4 and 16.7 and 22.45 and 54.71 and 56.59
- Training Day 1, trial 4 (TgAPP mice; [3]): 60 and 11.64 and 20.5 and 33.89
- Training Day 2 AVG (TgAPP mice; MWM training, Day 2, group average): 35.2243
- Training Day 2, mean of the three trials per animal (TgAPP mice; MWM training, Day 2, per-animal mean, listed as 143): 48.7167 and 60 and 46.3833 and 23.8467 and 50.26 and 10.58 and 21.0467 and 41.7533 and 44.3033 and 5.353
- Training Day 2, trial 1 (TgAPP mice; [4]): 60 and 20.69 and 7.13 and 14.22 and 47.78 and 22.96 and 5.56
- Training Day 2, trial 2 (TgAPP mice; [4]): 60 and 19.15 and 23.07 and 4.53 and 36.28 and 34.46 and 5.16
- Training Day 2, trial 4 (TgAPP mice; [4]): 26.15 and 60 and 27.78 and 30.78 and 20.08 and 12.64 and 43.02 and 49.95 and 5.34
- Training Day 3 AVG (TgAPP mice; MWM training, Day 3, group average): 21.9237
- Training Day 3, mean of the three trials per animal (TgAPP mice; MWM training, Day 3, per-animal mean, listed as 143): 16.49 and 19.77 and 22.4067 and 12.88 and 27.5233 and 6.497 and 51.49 and 20.0267 and 24.96 and 17.1933
- Training Day 3, trial 1 (TgAPP mice; [5]): 5.91 and 7.09 and 10.32 and 15.21 and 29.09 and 11.01 and 60 and 23.94 and 21.27 and 31.09
- Training Day 3, trial 2 (TgAPP mice; [5]): 2.72 and 9.21 and 18.46 and 13.59 and 19.08 and 3.47 and 34.47 and 8.82 and 17.41 and 5.46
- Training Day 3, trial 4 (TgAPP mice; [5]): 40.84 and 43.01 and 38.44 and 9.84 and 34.4 and 5.01 and 60 and 27.32 and 36.2 and 15.03
- Trial 1 D4 AVG (TgAPP mice; MWM training, Day 4, Trial 1, group average): 16.872
- Training Day 4 AVG (TgAPP mice; MWM training, Day 4, group average): 25.5753
- Training Day 4, mean of the three trials per animal (TgAPP mice; MWM training, Day 4, per-animal mean, listed as 143): 15.5667 and 10.07 and 25.41 and 53.8233 and 37.2967 and 27.5933 and 22.5667 and 22.4167 and 10.7767 and 30.2333
- Training Day 4, trial 1 (TgAPP mice; [6]): 12.47 and 11.66 and 37.95 and 60 and 26.19 and 10.69 and 29.33 and 43.27 and 12.2 and 43.31
- Training Day 4, trial 2 (TgAPP mice; [6]): 3.58 and 4.64 and 11.51 and 49.87 and 42.77 and 12.09 and 15.35 and 10.7 and 9.45 and 8.76
- Training Day 4, trial 4 (TgAPP mice; [6]): 30.65 and 13.91 and 26.77 and 51.6 and 42.93 and 60 and 23.02 and 13.28 and 10.68 and 38.63
- Morris water maze probe day (time in correct quadrant, quadrant entries, latency to platform) (TgAPP mice; TgAPP mice, 5 mg/kg IP, 6 wk, vs DMSO): showed improvement on measures of memory on the probe day of the water maze
- Morris water maze training trials: time to locate the platform (TgAPP mice; TgAPP mice, BK40143 5 mg/kg, BK40197 45 mg/kg IP, 6 wk, vs DMSO): locate the platform significantly quicker on later training trials
- inhibition at 10 µM (MTOR): 0%
- remaining binding at 10 µM (MTOR; lower = stronger binding, read-out: MTOR %Ctrl @ 10000nM (POC)): 100%
- inhibition at 10 µM (PDGFRb): 99.9%
- remaining binding at 10 µM (PDGFRb; lower = stronger binding, read-out: PDGFRb %Ctrl @ 10000nM (POC)): 0.1%
